Assay results as given in patent US5086056A, “2-(heterocyclylalkyl)imidazopyridines” (Janssen Pharmaceutica N.V., priority 1987, dated 1992).

These compounds were tested on compound 48/80-induced lethality (assay: Protection of rats from compound 48/80-induced lethality). Settings: Rattus norvegicus; dose protecting 50% of animals; s.c. or oral, 1 hour before compound 48/80 0.5 mg/kg i.v.; survival after 4 hours; read-out: compound 48/80 lethality test in rats-ED50.
Assay type: in vivo, rat (male, inbred Wistar strain)
Excerpt: Protection of rats from compound 48/80-induced lethality
Compound 48/80, a mixture of oligomers obtained by condensation of 4-methoxy-N-methylbenzeneethanamine and formaldehyde has been described as a potent histamine releasing agent (Int. Arch. Allergy, 13, 336 (1958)). The protection from compound 48/80-induced lethal circulatory collapse appears to be a simple way of evaluating quantitatively the antihistaminic activity of test compounds. Male rats of an inbred Wistar strain, weighing 240-260 g were used in the experiment. After overnight starvation the rats were transferred to conditioned laboratories (temp.=21°±1° C., relative humidity=65±5%). The rats were treated subcutaneously or orally with a test compound or with the solvent (NaCl solution, 0.9%). One hour after treatment there was injected intraveneously compound 48/80, freshly dissolved in water, at a dose of 0.5 mg/kg (0.2 ml/100 g of body weight). In control experiments, wherein 250 solvent-treated animals were injected with the standard dose of compound 48/80, not more than 2.8% of the animals survived after 4 hours. Survival after 4 hours is therefore considered to be a safe criterion of a protective effect of drug administration. Said ED50 -values are the values in mg/kg body weight at which the tested compounds protect 50% of the tested animals against compound 48/80-induced lethality.

Row | Structure (SMILES) | ED50
1 | Cc1ccc(Cn2c(CN3CCN(C)CC3)nc3cccnc32)o1 [Compound 14, 3-[(5-methyl-2-furanyl)methyl]-2-[ (4-methyl-1-piperazinyl)methyl]-3H-imidazo[4,5-b]pyridine] | 0.01 mg/kg
2 | CCOCCN1CCN(Cc2nc3cccnc3n2CCOCC)CC1 [Compound 42] | 0.02 mg/kg
3 | CCOCCn1c(CN2CCN(CCCOc3ccc(F)cc3)CC2)nc2cccnc21 [Compound 79, 3-(2-ethoxyethyl)-2-[[4-[3-(4-fluorophenoxy)propyl]-1-piperazinyl]methyl]-3H-imidazo[4,5-b]pyridine] | 0.02 mg/kg
4 | C=CCOCCn1c(CN2CCN(C)CC2)nc2cccnc21 [Compound 126, 2-[(4-methyl-1-piperazinyl)methyl]-3-[2-(2-propenyloxy)ethyl]-3H-imidazo[4,5-b]pyridine] | 0.02 mg/kg
5 | CCOCCn1c(CN2CCN(CCc3ccc(OC)cc3)CC2)nc2cccnc21 [Compound 47] | 0.02 mg/kg
6 | CCOCCn1c(CN2CCN(CCCn3c(=O)[nH]c4ccccc43)CC2)nc2cccnc21 [Compound 77, 1-[3-[4-[[3-(2-ethoxyethyl)-3H-imidazo[4,5-b]pyridin-2-yl]methyl]-1piperazinyl]propyl]-1,3-dihydro-2H-benzimidazol-2-one] | 0.02 mg/kg
7 | CCOCCn1c(CN2CCN(CCc3scnc3C)CC2)nc2cccnc21 [Compound 74, 3-(2-ethoxyethyl)-2-[[4-[2-(4-methyl-5-thiazolyl)ethyl]-1-piperazinyl]methyl]-3H-imidazo[4,5-b]pyridine] | 0.01 mg/kg
8 | CCOCCn1c(CN2CCN(CCc3ccccn3)CC2)nc2cccnc21 [Compound 120, 3-(2-ethoxyethyl)-2-[[4-[2-(2-pyridinyl)ethyl]-1-piperazinyl]methyl]-3H-imidazo[4,5-b]pyridine] | 0.005 mg/kg
9 | CCOCCn1c(CN2CCN(CCCC(C)=O)CC2)nc2cccnc21 [Compound 44] | 0.005 mg/kg
10 | CCOCCn1c(CN2CCN(CCNc3ncccn3)CC2)nc2cccnc21 [Compound 105, N-[2-[-4-[[3-(2-ethoxyethyl)-3H-imidazo[4,5-b]pyridin-2-yl]methyl]-1-piperazinyl]ethyl]-2-pyrimidinamine] | 0.01 mg/kg
11 | CCOCCn1c(CN2CCN(CCNC(=O)c3ccoc3)CC2)nc2cccnc21 [Compound 110, N-[2-[4-[[3-(2-ethoxyethyl)-3H-imidazo[4,5-b]pyridin-2-yl]methyl]-1-piperazinyl]ethyl]-3-furancarboxamide] | 0.01 mg/kg
12 | CCOCCn1c(CN2CCN(CCC(=O)NC(C)C)CC2)nc2cccnc21 [Compound 93, 4-[[3-(2-ethoxyethyl)-3H-imidazo[4,5-b]pyridin-2-yl]methyl]-N-(1-methylethyl)-1-piperazinepropanamide] | 0.01 mg/kg
13 | C#CCOCCn1c(CN2CCN(C)CC2)nc2cccnc21 [Compound 125, 2-[(4-methyl-1-piperazinyl)methyl]-3-[2-(2-propynyloxy)ethyl]-3H-imidazo[4,5-b]pyridine] | 0.02 mg/kg
14 | CCOCCn1c(CN2CCN(CCNC(=O)c3cccn3C)CC2)nc2cccnc21 [Compound 111, N-[2-[4-[[3-(2-ethoxyethyl)-3H-imidazo[4,5-b]pyridin-2-yl]methyl]-1-piperazinyl]ethyl]-1-methyl-1H-pyrrole-2-carboxamide] | 0.02 mg/kg
15 | CCOCCn1c(CN2CCN(CCc3c(C)nc4ccccn4c3=O)CC2)nc2cccnc21 [Compound 76, 3-[2-[4-[[3-(2-ethoxyethyl)-3H-imidazo[4,5-b]pyridin-2-yl]methyl]-1-piperazinyl]ethyl]-2-methyl-4H-pyrido[1,2-a]pyrimidin-4-one] | 0.02 mg/kg
16 | CCOCCn1c(CN2CCN(C)CC2)nc2cccnc21 [Compound 17, 3-(2-ethoxyethyl)-2-[(4-methyl-1-piperazinyl)methyl]-3H-imidazo[4,5-b]pyridine] | 0.04 mg/kg
